This is an account of results in BindingDB's records for doi:10.1021/jm000119i (Rensselaer Polytechnic Institute, 2000).

What is called Ki is the equilibrium dissociation constant of an inhibitor or competing ligand from its target.

Molecules are shown by their SMILES.

The assay is described as follows: Binding affinity to displace radioligand [3H]naltrindole on Opioid receptor delta 1 in guinea pig membranes.

As for `CN1CC[C@]23c4c5ccc(N)c4O[C@H]2[C@@H](O)C=C[C@H]3[C@H]1C5`, affinity was put at a Ki of 2400 nM.

Take `CNc1ccc2c3c1O[C@H]1[C@@H](O)C=C[C@H]4[C@@H](C2)N(C)CC[C@@]341`: the Ki came to 5700 nM.

As to `CN(C)c1ccc2c3c1O[C@H]1[C@@H](O)C=C[C@H]4[C@@H](C2)N(C)CC[C@@]341`, the Ki amounted to 1600 nM.

Take `CN1CC[C@]23c4c5ccc(NCc6ccccc6)c4O[C@H]2[C@@H](O)C=C[C@H]3[C@H]1C5`: affinity was put at a Ki of 5500 nM.

`CN1CC[C@]23c4c5ccc(Nc6ccccc6)c4O[C@H]2[C@@H](O)C=C[C@H]3[C@H]1C5` showed a Ki of 1500 nM.
